Test results taken from ChEMBL document CHEMBL2401690, “Discovery of RG7388, a potent and selective p53-MDM2 inhibitor in clinical development” (J Med Chem, 2013).

How the values were obtained:
[1] = Clearance in human liver microsomes at […] by LC-MS/MS analysis; assay type: ADME, Microsome
[2] = AUC in nude mouse xenografted with human SJSA1 cells at 50 mg/kg, po; assay type: ADME, organism-based, SJSA-1; set-up: dose 50 mg/kg, route oral; conditions: in vivo
[3] = system: SJSA-1; test: animal or person; conditions: Mus musculus, SJSA-1, po, 336 h, read-out: TGI
Description: Antitumor activity against human SJSA1 cells xenografted in nude mouse assessed as tumor growth inhibition at 50 mg/kg, po after 2 weeks relative to control

[4] = AUC in nude mouse xenografted with human SJSA1 cells at 100 mg/kg, po; assay type: ADME, organism-based, SJSA-1; set-up: dose 100 mg/kg, route oral; conditions: in vivo
[5] = Half life in nude mouse at 5 mg/kg, iv; assay type: ADME, organism-based; set-up: dose 5 mg/kg, route intravenous; conditions: in vivo
[6] = Clearance in nude mouse at 5 mg/kg, iv; assay type: ADME, organism-based; set-up: dose 5 mg/kg, route intravenous; conditions: in vivo
[7] = system: SJSA-1; test: Antitumor activity against human SJSA1 cells xenografted in nude mouse assessed as tumor growth inhibition at 100 mg/kg, po after 2 weeks relative to control; assay type: functional; conditions: SJSA-1, 336 h, read-out: TGI
[8] = Apparent terminal half-life in C57 mouse at 5 mg/kg, iv; assay type: ADME, organism-based; set-up: dose 5 mg/kg, route intravenous; conditions: in vivo, read-out: betat1/2(app) (converted)
[9] = Total plasma clearance in C57 mouse at 5 mg/kg, iv; assay type: ADME, organism-based; set-up: dose 5 mg/kg, route intravenous
[10] = system: SW480; test: cells; conditions: Homo sapiens
Description: Cytotoxicity against human SW480 cells expressing p53 mutant assessed as growth inhibition by MTT assay

[11] = Cmax in C57 mouse at 20 mg/kg, po; assay type: ADME, organism-based; set-up: dose 20 mg/kg, route oral; conditions: in vivo
[12] = Oral bioavailability in C57 mouse at 20 mg/kg; assay type: ADME, organism-based; conditions: in vivo
[13] = system: SJSA-1; test: cells; conditions: Homo sapiens
Description: Cytotoxicity against human SJSA1 cells expressing wild type p53 assessed as growth inhibition by MTT assay

[14] = system: HCT-116; test: cells; conditions: Homo sapiens
Description: Cytotoxicity against human HCT116 cells expressing wild type p53 assessed as growth inhibition by MTT assay

[15] = system: RKO; test: cells; conditions: Homo sapiens
Description: Cytotoxicity against human RKO cells expressing wild type p53 assessed as growth inhibition by MTT assay

[16] = system: MDA-MB-435; test: cells; conditions: Homo sapiens
Description: Cytotoxicity against human MDA-MB-435 cells expressing p53 mutant assessed as growth inhibition by MTT assay

[17] = Oral bioavailability in C57 mouse at 50 mg/kg; assay type: ADME, organism-based; conditions: in vivo
[18] = Cmax in C57 mouse at 50 mg/kg, po; assay type: ADME, organism-based; set-up: dose 50 mg/kg, route oral; conditions: in vivo
[19] = Apparent terminal half-life in C57 mouse at 3.6 mg/kg, iv; assay type: ADME, organism-based; set-up: dose 3.6 mg/kg, route intravenous; conditions: in vivo, read-out: betat1/2(app) (converted)
[20] = Total plasma clearance in C57 mouse at 3.6 mg/kg, iv; assay type: ADME, organism-based; set-up: dose 3.6 mg/kg, route intravenous
[21] = Cmax in C57 mouse at 25 mg/kg, po; assay type: ADME, organism-based; set-up: dose 25 mg/kg, route oral; conditions: in vivo
[22] = Oral bioavailability in C57 mouse at 25 mg/kg; assay type: ADME, organism-based; conditions: in vivo
[23] = system: SJSA-1; test: Cell cycle arrest in human SJSA1 cells assessed as accumulation at G1 phase after 24 hrs; assay type: functional, cell-based
[24] = system: SJSA-1; test: Induction of apoptosis in human SJSA1 cells after 48 hrs by annexin V staining assay; assay type: functional, cell-based
[25] = AUC in nude mouse xenografted with human SJSA1 cells at 25 mg/kg, po; assay type: ADME, organism-based, SJSA-1; set-up: dose 25 mg/kg, route oral; conditions: in vivo
[26] = target: E3 ubiquitin-protein ligase Mdm2 (Homo sapiens) (UniProt Q00987); test: Inhibition of MDM2 in human SJSA1 cells assessed as induction of p53 stabilization after 20 hrs by Western blot analysis; assay type: cell-based; conditions: SJSA-1
[27] = system: SJSA-1; test: Cell cycle arrest in human SJSA1 cells assessed as accumulation at G2/M phase after 24 hrs; assay type: functional, cell-based
[28] = system: SJSA-1; test: Antitumor activity against human SJSA1 cells xenografted in nude mouse assessed as tumor growth inhibition at 12.5 mg/kg, po after 2 weeks relative to control; assay type: functional; conditions: SJSA-1, 336 h, read-out: TGI
[29] = AUC in nude mouse xenografted with human SJSA1 cells at 12.5 mg/kg, po; assay type: ADME, organism-based, SJSA-1; set-up: dose 12.5 mg/kg, route oral; conditions: in vivo
[30] = system: SJSA-1; test: Antitumor activity against human SJSA1 cells xenografted in nude mouse assessed as tumor growth inhibition at 25 mg/kg, po after 2 weeks relative to control; assay type: functional; conditions: SJSA-1, 336 h, read-out: TGI
[31] = Cmax in nude mouse at 50 mg/kg, po; assay type: ADME, organism-based; set-up: dose 50 mg/kg, route oral; conditions: in vivo
[32] = Oral bioavailability in nude mouse at 50 mg/kg; assay type: ADME, organism-based; conditions: in vivo

Chain of E3 ubiquitin-protein ligase Mdm2 (Homo sapiens) (Q00987 whole entry, looked up): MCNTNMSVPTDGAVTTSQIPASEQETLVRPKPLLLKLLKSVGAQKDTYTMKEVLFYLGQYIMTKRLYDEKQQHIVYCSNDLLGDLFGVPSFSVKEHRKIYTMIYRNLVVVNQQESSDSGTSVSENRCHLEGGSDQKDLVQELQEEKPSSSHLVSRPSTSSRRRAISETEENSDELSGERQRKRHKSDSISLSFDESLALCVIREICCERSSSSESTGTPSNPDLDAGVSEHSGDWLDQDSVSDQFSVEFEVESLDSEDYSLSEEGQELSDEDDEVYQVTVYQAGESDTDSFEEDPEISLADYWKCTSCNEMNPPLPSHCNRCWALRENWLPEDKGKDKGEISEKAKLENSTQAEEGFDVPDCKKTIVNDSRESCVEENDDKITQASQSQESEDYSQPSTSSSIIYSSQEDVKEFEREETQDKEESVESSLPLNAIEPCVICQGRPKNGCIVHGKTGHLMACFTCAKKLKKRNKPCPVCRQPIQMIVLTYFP

Row | CLhep predicted [1] | half-life [8] | clearance [9] | IC50 [10] | IC50 [13] | IC50 [14] | IC50 [15] | IC50 [16] | bioavailability [17] | Cmax [18] | SMILES | further results
1 | 19.9 mL/min/kg | 0.52 h | 51.7 mL/min/kg | 16800 nM | 2100 nM |  |  |  |  |  | CC(C)(C)C[C@@H]1N[C@@H](C(=O)NCC[C@H](O)CO)[C@H](c2cccc(Cl)c2F)[C@@]1(C#N)c1ccc(Cl)cc1F | Cmax [11]: 300 ng/mL; bioavailability [12]: 3.6%
2 | 18.7 mL/min/kg | 0.44 h | 52.9 mL/min/kg | 30000 nM | 2100 nM | 3400 nM | 3000 nM | 14400 nM |  |  | CC(C)(C)C[C@@H]1N[C@@H](C(=O)NCC[C@H](O)CO)[C@H](c2cccc(Cl)c2)[C@@]1(C#N)c1ccc(Cl)cc1 | Cmax [11]: 500 ng/mL; bioavailability [12]: 6.2%
3 | 6.6 mL/min/kg | 4.8 h | 21.8 mL/min/kg | 18400 nM | 30 nM | 40 nM | 140 nM | 6200 nM | 56% | 4100 ng/mL | COc1cc(NC(=O)[C@@H]2N[C@@H](CC(C)(C)C)[C@](C#N)(c3ccc(Cl)cc3F)[C@H]2c2cccc(Cl)c2F)ccc1C(=O)O | 
4 | 4.2 mL/min/kg |  |  | 6280 nM | 1320 nM | 1420 nM | 1420 nM | 8560 nM |  |  | CC(C)(C)C[C@@H]1N[C@@H](C(=O)Nc2ccn(CC(C)(C)O)n2)[C@H](c2cccc(Cl)c2F)[C@@]1(C#N)c1ccc(Cl)cc1F | half-life [19]: 1.48 h; clearance [20]: 19.8 mL/min/kg; Cmax [21]: 10 ng/mL; bioavailability [22]: < 1%
5 | 4.3 mL/min/kg | 1.6 h | 10.3 mL/min/kg | 13300 nM | 10 nM | 10 nM | 70 nM | 9100 nM | 80% | 9900 ng/mL | COc1cc(C(=O)O)ccc1NC(=O)[C@@H]1N[C@@H](CC(C)(C)C)[C@](C#N)(c2ccc(Cl)cc2F)[C@H]1c1cccc(Cl)c1F [IDASANUTLIN] | Activity [23]: Dose-dependent effect; Activity [24]: Dose-dependent effect; AUC [25]: 29 µg·h/mL; inhibition [26]: Dose-dependent effect; Activity [27]: Dose-dependent effect; inhibition in vivo at 12.5 mg/kg [28]: 88%; AUC [29]: 23 µg·h/mL; inhibition in vivo at 25 mg/kg [30]: > 100%
6 | 9.4 mL/min/kg | 1.41 h | 24.5 mL/min/kg | 12300 nM | 40 nM | 140 nM | 280 nM | 9200 nM | 27% | 1700 ng/mL | CC(C)(C)C[C@@H]1N[C@@H](C(=O)Nc2ccc3cc(C(=O)O)ccc3c2)[C@H](c2cccc(Cl)c2F)[C@@]1(C#N)c1ccc(Cl)cc1F | 
7 |  |  |  | 15600 nM | 160 nM | 410 nM | 1540 nM | 9700 nM |  |  | CC(C)(C)C[C@@H]1N[C@@H](C(=O)Nc2cccc(C(=O)O)c2)[C@H](c2cccc(Cl)c2F)[C@@]1(C#N)c1ccc(Cl)cc1F | 
8 | 4.9 mL/min/kg |  |  | 13800 nM | 40 nM | 90 nM | 210 nM | 11100 nM |  |  | CC(C)(C)C[C@@H]1N[C@@H](C(=O)Nc2ccc(C(=O)O)cc2)[C@H](c2cccc(Cl)c2F)[C@@]1(C#N)c1ccc(Cl)cc1F | Cmax [31]: 12000 ng/mL; bioavailability [32]: 83%; half-life [5]: 4.34 h; clearance [6]: 13.8 mL/min/kg
9 | 8.9 mL/min/kg | 1.03 h | 29.7 mL/min/kg | 13800 nM | 50 nM | 90 nM | 400 nM | 11200 nM | 53% | 3000 ng/mL | CC(C)(C)C[C@@H]1N[C@@H](C(=O)Nc2ccc(C(=O)O)cn2)[C@H](c2cccc(Cl)c2F)[C@@]1(C#N)c1ccc(Cl)cc1F | 
10 | 12.2 mL/min/kg | 4.4 h | 18.4 mL/min/kg | 15900 nM | 50 nM | 140 nM | 440 nM | 11300 nM | 49% | 3800 ng/mL | CC(C)(C)C[C@@H]1N[C@@H](C(=O)Nc2ccc(C(=O)O)c(F)c2)[C@H](c2cccc(Cl)c2F)[C@@]1(C#N)c1ccc(Cl)cc1F | 
11 | 7 mL/min/kg | 3.1 h | 11.5 mL/min/kg | 13500 nM | 90 nM | 200 nM | 500 nM | 11700 nM | 100% | 18000 ng/mL | CC(C)(C)C[C@@H]1N[C@@H](C(=O)Nc2ccc(C(=O)O)cc2F)[C@H](c2cccc(Cl)c2F)[C@@]1(C#N)c1ccc(Cl)cc1F | 

Row | SMILES | CLhep predicted [1] | half-life [8] | clearance [9] | IC50 [10] | IC50 [13] | IC50 [14] | IC50 [15] | IC50 [16] | bioavailability [17] | Cmax [18] | further results
12 | CCOc1cc(C(C)(C)C)ccc1C1=N[C@@](C)(c2ccc(Cl)cc2)[C@@](C)(c2ccc(Cl)cc2)N1C(=O)N1CCN(CCCS(C)(=O)=O)CC1 [RO-5045337] | 5.8 mL/min/kg |  |  |  |  |  |  |  |  |  | AUC [2]: 200 µg·h/mL; inhibition in vivo at 50 mg/kg [3]: 74%; AUC [4]: 380 µg·h/mL; half-life [5]: 2.7 h; clearance [6]: 8.6 mL/min/kg; inhibition in vivo at 100 mg/kg [7]: > 100%
